Data reported in patent US20230114241A1, “METHODS OF TREATING EPILEPSY USING THE SAME” (Trevena, Inc., priority 2019, published 2023).

Experiments:
[1] = target: T1, human sphingosine-1-phosphate receptor 1 (S1P1) (Homo sapiens, UniProt P21453); assay: Inhibition of cAMP production (HTRF cAMP HiRange), S1P1 CHO-K1 cells; format: cell-based; conditions: for EC50: read-out: hS1P1 CAMP pEC50 (converted); for Emax: CHO-K1, efficacy normalized to maximum efficacy of fingolimod, read-out: hS1P1 CAMP SPAN
Procedure, shortened: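 CHO-K1 cells co-expressing human S1P1 (C-terminal ProLink tag) and EA-β-arrestin2, plated overnight; after 30 min compound incubation at 37 °C, intracellular cAMP measured by HTRF TR-FRET following 1 h at room temperature. Values normalized to fingolimod.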
Target sequence in this assay (P21453 whole entry): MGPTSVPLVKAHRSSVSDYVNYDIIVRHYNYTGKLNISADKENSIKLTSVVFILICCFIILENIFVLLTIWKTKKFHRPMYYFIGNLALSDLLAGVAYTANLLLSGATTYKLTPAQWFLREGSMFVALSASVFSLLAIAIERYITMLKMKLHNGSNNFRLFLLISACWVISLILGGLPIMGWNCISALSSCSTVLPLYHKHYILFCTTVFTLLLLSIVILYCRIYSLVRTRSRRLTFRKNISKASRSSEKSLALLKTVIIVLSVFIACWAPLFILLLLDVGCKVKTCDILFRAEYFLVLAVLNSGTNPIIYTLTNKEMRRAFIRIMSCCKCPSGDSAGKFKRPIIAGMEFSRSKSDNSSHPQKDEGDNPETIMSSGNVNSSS

[2] = system: peripheral blood lymphocytes; assay: Lymphopenia: peripheral blood lymphocyte counts, acute and chronic s.c. dosing; format: in vivo; conditions: c57bl/6 mice
Procedure: Compounds were tested for changes in peripheral blood lymphocytes in C57bl/6 mice. In acute studies, animals (n=5/group) were dosed subcutaneously with test compound at a dose of 3 mg/kg. Animals were sacrificed at specific time points and […] of whole blood was collected in EDTA (K2) Eppendorf tubes. Blood was stored on ice and shipped immediately overnight delivery to Charles River Laboratories for analysis. CRL ran samples through their WBC/differential panel on an Advia 120 instrument. We received peripheral lymphocyte counts (10^3 cells/μl) for each blood sample. Treatment group means were compared to a vehicle treatment group for statistical significance. In chronic studies, animals (n=6-8/group) were dosed subcutaneously for three to seven days with test compound at doses that were at least 5-fold higher than the efficacious dose in pharmacology/behavioral assays. On the last day, animals were sacrificed 45 minutes to 6 hrs after the final dose. Whole blood was collected and analyzed as described for acute studies. […]

[3] = target: T1, human sphingosine-1-phosphate receptor 1 (S1P1); assay: β-Arrestin2 recruitment assay (PathHunter), S1P1 CHO-K1 cells; format: cell-based; conditions: for Emax: efficacy normalized to maximum efficacy of fingolimod, read-out: hS1P1 B-arrestin2 SPAN; for EC50: β-arrestin2 recruitment, read-out: hS1P1 B-arrestin2 pEC50 (converted)
Procedure, shortened: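 CHO-K1 cells co-expressing EA-β-arrestin2 and ProLink-tagged human S1P1 plated overnight, then stimulated 60 min at 37 °C. Enzyme-fragment complementation (β-galactosidase) detected after 1 h at room temperature by luminescence; values normalized to fingolimod.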
Target sequence in this assay (P21453 whole entry): as above
Target sequence in this assay (P32121 whole entry partner): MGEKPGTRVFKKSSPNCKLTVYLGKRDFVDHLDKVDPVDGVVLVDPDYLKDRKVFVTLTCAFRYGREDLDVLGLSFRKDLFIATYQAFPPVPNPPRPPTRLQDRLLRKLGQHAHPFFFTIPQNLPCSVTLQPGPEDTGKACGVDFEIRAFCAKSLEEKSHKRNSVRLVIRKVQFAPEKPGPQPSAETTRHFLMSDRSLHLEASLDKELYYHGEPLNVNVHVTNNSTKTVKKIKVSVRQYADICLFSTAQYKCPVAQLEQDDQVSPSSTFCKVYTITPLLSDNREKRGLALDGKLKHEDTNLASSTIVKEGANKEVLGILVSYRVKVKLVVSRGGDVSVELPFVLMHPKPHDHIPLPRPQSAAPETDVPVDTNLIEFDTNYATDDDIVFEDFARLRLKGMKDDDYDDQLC

[4] = target: human sphingosine-1-phosphate receptor 3 (S1P3) (Homo sapiens, UniProt Q99500); assay: Selectivity: inhibition of cAMP production (HTRF), S1P3 CHO-K1 cells; format: cell-based
Procedure: (§1) Cell Culturing and Assay Plating Cell lines were cultured in AssayComplete™ Media 6 (DiscoverX Corporation, Cat #: 920018GF2) at 37° C. and 5% CO2 in a humidified CO2 and temperature-controlled incubator. To begin assay plating, cells were washed with Dulbecco's phosphate buffered saline (CellGro, Cat #: 21-031-CV) and lifted from the culturing flask by incubation (37° C., 5 min) with CellStripper (Cellgro, Cat #: 25-056-CI). […] Plated cells were incubated overnight at 37° C. and 5% CO2 in a humidified CO2 and temperature-controlled incubator. Detecting Inhibition of cAMP Production
S1P3 and S1P5 Agonist-promoted G-protein responses were determined by measuring changes in intracellular cAMP using the HTRF® cAMP HiRange kit (CisBio, Cat #: 62AM6PEJ) based on time-resolved fluorescence resonance energy transfer (TR-FRET) technology. […] Following a 30-minute room temperature incubation the components of the cAMP HiRange kit were added as per the manufacturer's instructions. After an hour incubation at room temperature, plates were analyzed by a BMG PheraStar microplate reader.
(§2) These values are normalized to fimgolimod, a known agonist of the sphingosine-1-phosphate 3 and 5 receptor or CYM5520, a known agonist of the sphingosine-1-phosphate 2 receptor. The tables also include potency values (pEC50) for modulating discrete receptor-mediated activities (inhibition of cAMP production or inositol monophosphate accumulation).

[5] = target: human sphingosine-1-phosphate receptor 2 (S1P2) (Homo sapiens, UniProt O95136); assay: Selectivity: inositol monophosphate production (IP-one), S1P2 CHO-K1 cells; format: cell-based
Procedure: as §1
S1P2 Agonist-promoted G-protein responses were determined by measuring changes in intracellular inositol monophosphate using the IP-one TB kit (CisBio, Cat #: 62IPAPEJ) based on time-resolved fluorescence resonance energy transfer (TR-FRET) technology. AssayComplete™ Cell Plating 2 Reagent was removed and replaced with 1× IP-one stimulation buffer (as per manufacturer's instructions) along with test or control compounds at the desired concentrations.
Following a 60-minute incubation at 37° C. and 5% CO2 in a humidified CO2 and temperature-controlled incubator, the components of the IP-one TB kit were added as per the manufacturer's instructions. After an hour incubation at room temperature, plates were analyzed by a BMG PheraStar microplate reader.
as §2

[6] = inhibition of cAMP production, potency
[7] = inhibition of cAMP production, S1P1
[8] = CHO-K1, β-arrestin2 recruitment

Chain of human sphingosine-1-phosphate receptor 2 (S1P2) (O95136 whole entry): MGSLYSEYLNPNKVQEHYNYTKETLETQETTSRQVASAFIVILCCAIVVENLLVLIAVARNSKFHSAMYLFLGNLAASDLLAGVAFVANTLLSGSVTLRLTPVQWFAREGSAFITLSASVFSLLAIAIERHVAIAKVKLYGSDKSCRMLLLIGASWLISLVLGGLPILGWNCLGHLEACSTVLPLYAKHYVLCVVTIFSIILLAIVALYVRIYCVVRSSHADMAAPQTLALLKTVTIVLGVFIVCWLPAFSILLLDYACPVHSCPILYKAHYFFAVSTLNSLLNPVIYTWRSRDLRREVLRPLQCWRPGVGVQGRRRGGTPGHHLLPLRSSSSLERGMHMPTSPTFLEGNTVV
Chain of human sphingosine-1-phosphate receptor 3 (S1P3) (Q99500 whole entry): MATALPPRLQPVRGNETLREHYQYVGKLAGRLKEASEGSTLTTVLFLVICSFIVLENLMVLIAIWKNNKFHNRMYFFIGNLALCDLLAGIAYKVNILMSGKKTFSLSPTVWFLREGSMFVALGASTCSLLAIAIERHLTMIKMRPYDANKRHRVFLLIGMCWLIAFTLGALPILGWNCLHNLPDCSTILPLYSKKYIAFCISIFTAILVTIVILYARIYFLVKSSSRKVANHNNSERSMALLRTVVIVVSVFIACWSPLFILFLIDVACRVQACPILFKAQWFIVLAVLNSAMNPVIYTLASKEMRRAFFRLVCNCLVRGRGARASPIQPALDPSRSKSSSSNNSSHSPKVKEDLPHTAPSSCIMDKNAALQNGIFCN

Structure (SMILES)	EC50 [1, 6] [nM]	Lymphopenia effect (peripheral blood lymphocytes) ([2]; 6 mg/kg sc, 7 days)	Emax [3, 8] [%]	Emax ([1]; inhibition of cAMP production) [%]	also measured
CCC1(CC)CC(=O)c2cc(-c3nc(-c4cccnc4OC)no3)ccc2O1 [Compound 147, 2,2-diethyl-6-(3-(2-methoxypyridin-3-yl)-1,2,4-oxadiazol-5-yl)chroman-4-one]	< 316	no change: 6 mg/kg, 7 days	–	–	–
Cc1cnccc1-c1nc(-c2ccc3c(c2)nnn3C(C)C)no1 [Compound 8, 3-(1-isopropyl-1H-benzo[d][1,2,3]triazol-5-yl)-5-(3-methylpyridin-4-yl)-1,2,4-oxadiazole]	> 316	no change: 6 mg/kg, 7 days	–	–	–
CC(F)(F)CNc1ccc(-c2nnc(-c3ccc4[nH]cnc4c3)o2)cc1C#N [Compound 520, 5-[5-(1H-1,3-benzodiazol-5-yl)-1,3,4-oxadiazol-2-yl]-2-[(2,2-difluoro-propyl)amino]benzonitrile]	–	no change: 6 mg/kg, 7 days	–	–	EC50 [1, 7]: < 316 nM
Cc1ccccc1-c1noc(-c2ccc3c(c2)nnn3C(C)C)n1 [Compound 293, 5-[3-(2-methylphenyl)-1,2,4-oxadiazol-5-yl]-1-(propan-2-yl)-1H-1,2,3-benzotriazole]	< 316	no change: 6 mg/kg, 7 days	–	–	–
COc1cccc(-c2noc(-c3ccc4c(c3)nnn4C(C)C)n2)n1 [Compound 19, 5-[3-(6-methoxypyridin-2-yl)-1,2,4-oxadiazol-5-yl]-1-(propan-2-yl)-1H-1,2,3-benzotriazole]	> 316	no change: 6 mg/kg, 7 days	< 75	< 75	EC50 ([3]; potency): < 10000 nM
CC(F)(F)CNc1ccc(-c2nnc(-c3ccc4[nH]ncc4c3)o2)cc1C#N [Compound 355, 2-[(2,2-difluoro-propyl)amino]-5-[5-(1H-indazol-5-yl)-1,3,4-oxadiazol-2-yl]benzonitrile]	< 316	no change: 6 mg/kg, 7 days	> 75	> 75	–
COc1ccc(-c2noc(-c3ccc4c(c3)nnn4C(C)C)n2)c(C)c1 [Compound 55, 5-(1-isopropyl-1H-benzo[d][1,2,3]triazol-5-yl)-3-(4-methoxy-2-methylphenyl)-1,2,4-oxadiazole]	< 316	no change: 6 mg/kg, 7 days	> 75	> 75	EC50 ([3]; potency): < 10000 nM
CC(C)n1nnc2cc(-c3nc(-c4ccncc4C(F)(F)F)no3)ccc21 [Compound 455, 1-(propan-2-yl)-5-{3-[3-(trifluoromethyl)pyridin-4-yl]-1,2,4-oxadiazol-5-yl}-1H-1,2,3-benzotriazole]	–	no change: 6 mg/kg, 7 days	–	–	EC50 [1, 7]: < 316 nM
CCC1(CC)CC(=O)c2cc(-c3nc(-c4cccnc4)no3)ccc2O1 [Compound 103, 2,2-diethyl-6-[3-(pyridin-3-yl)-1,2,4-oxadiazol-5-yl]-3,4-dihydro-2H-1-benzopyran-4-one]	< 316	no change: 6 mg/kg, 7 days	–	–	–
Cc1cnccc1-c1nc(-c2ccc3c(ccn3C(C)C)c2)no1 [Compound 142, 3-(1-isopropyl-1H-indol-5-yl)-5-(3-methylpyridin-4-yl)-1,2,4-oxadiazole]	< 316	no change: 6 mg/kg, 7 days	–	–	–
Cc1ccccc1-c1noc(-c2ccc3c(c2)nnn3CC(C)C)n1 [Compound 96, 5-[3-(2-methylphenyl)-1,2,4-oxadiazol-5-yl]-1-(2-methylpropyl)-1H-1,2,3-benzotriazole]	< 316	no change: 6 mg/kg, 7 days	–	–	–
Cc1ccccc1-c1noc(-c2ccc3c(c2)nnn3C(C)(C)C)n1 [Compound 59, 1-tert-butyl-5-[3-(2-methylphenyl)-1,2,4-oxadiazol-5-yl]-1H-1,2,3-benzotriazole]	< 316	no change: 6 mg/kg, 7 days	> 75	> 75	EC50 ([3]; potency): < 10000 nM
CCC1(CC)CC(=O)c2cc(-c3nc(-c4ccc(NC(C)=O)cc4OC)no3)ccc2O1 [Compound 531, N-{4-[5-(2,2-diethyl-4-oxo-3,4-dihydro-2H-1-benzopyran-6-yl)-1,2,4-oxadiazol-3-yl]-3-methoxyphenyl} acetamide]	–	no change: 6 mg/kg, 7 days	–	–	Emax ([3]; CHO-K1): > 75%; EC50 ([3]; S1P1): < 10000 nM; Emax [1]: > 75%; EC50 [1, 7]: < 316 nM
N#Cc1cc(-c2nc(-c3ccc4oc(=O)[nH]c4c3)no2)ccc1NCC1CC1 [Compound 423, 2-((cyclopropyl-methyl)amino)-5-(3-(2-oxo-2,3-dihydrobenzo[d]oxazol-5-yl)-1,2,4-oxadiazol-5-yl)benzonitrile]	–	no change: 6 mg/kg, 7 days	–	–	Emax ([3]; CHO-K1): > 75%; EC50 ([3]; S1P1): < 10000 nM; Emax [1]: > 75%; EC50 [1, 7]: < 316 nM; Emax ([4]; CHO-K1, efficacy normalized to maximal efficacy of fimgolimod, read-out: hS1P3 cAMP SPAN): < 50%; EC50 ([4]; inhibition of cAMP production, read-out: hS1P3 cAMP pEC50 (converted)): < 10000 nM; Emax ([5]; CHO-K1, efficacy normalized to maximal efficacy of CYM5520, read-out: hS1P2 IP-one SPAN): < 50%; EC50 ([5]; inositol monophosphate accumulation, read-out: hS1P2 IP-one pEC50 (converted)): < 10000 nM
Cc1ccsc1-c1noc(-c2ccc3c(c2)nnn3C(C)C)n1 [Compound 169, 5-[3-(3-methyl-thiophen-2-yl)-1,2,4-oxadiazol-5-yl]-1-(propan-2-yl)-1H-1,2,3-benzotriazole]	< 316	no change: 6 mg/kg, 7 days	> 75	> 75	EC50 ([3]; potency): < 10000 nM
CN1C(=O)CCc2cc(-c3nc(-c4cccnc4)no3)ccc21 [Compound 384, 1-methyl-6-[3-(pyridin-3-yl)-1,2,4-oxadiazol-5-yl]-1,2,3,4-tetrahydroquinolin-2-one]	–	–	–	–	Emax ([3]; CHO-K1): < 75%; EC50 ([3]; S1P1): > 10000 nM; Emax [1]: > 75%; EC50 [1, 7]: > 316 nM; Lymphopenia effect (peripheral blood lymphocytes) ([2]; 3 mg/kg sc, 45 min and 2 hr): no change: 3 mg/kg; 45 min and 2 hr
Cc1cnc(-c2nc(-c3ccc4c(c3)nnn4C(C)C)no2)cn1 [Compound 234, 3-(1-isopropyl-1H-benzo[d][1,2,3]triazol-5-yl)-5-(5-methyl-pyrazin-2-yl)-1,2,4-oxadiazole]	> 316	no change: 6 mg/kg, 7 days	< 75	< 75	EC50 ([3]; potency): > 10000 nM
CC(C)Nc1ccc(-c2nnc(-c3ccc4[nH]cnc4c3)o2)cc1C#N [Compound 356, 5-[5-(1H-1,3-benzodiazol-5-yl)-1,3,4-oxadiazol-2-yl]-2-[(propan-2-yl)amino]benzonitrile]	< 316	no change: 6 mg/kg, 7 days	–	–	–
